Data set [1] has as its system luciferase-encoding HCV replicon. The data set is described as follows: HCV replicon Renilla luciferase antiviral assay. In kind it is cell-based, hepatitis C virus. The note with it: three days post drug addition. The method, then:
(§1) Using a stable cell line replicating a luciferase-encoding HCV replicon, we measured viral replication levels (Renilla luciferase) across a range of drug concentrations (2 nM to 44.4 µM) three days post drug addition. In parallel, we measured intracellular esterase activity as a surrogate for cell viability using the Calcein AM reagent.
(§2) Renilla luciferase replicon cell assays were performed as previously described. Calcein AM (Anaspec, Fremont, CA) and CellTiter-Glo (Promega, Madison, WI) readouts were performed as instructed by the manufacturer.
A general note: Replicon systems follow genome replication, usually without infectious particles.

In data set [2] the test system is HCV replicon cells. The data set is described as follows: Calcein AM intracellular esterase activity (cell viability). The method, then: as §1, §2
Data set [3] deals with HCV replicon cells. The data set can be described thus: CellTiter-Glo intracellular ATP (cell viability). The note with it: three day assay. The method, then:
as §2
In general terms: Cellular ATP, detected with luciferase, serves as a proxy for viable cell number.

Data set [4] has as its system genotype 1a replicon cells. The data set can be described thus: Cell number by count of Hoechst-stained nuclei. In kind it is cell-based. The note with it: three days; for number of cells per image / effect on number of cells per image: 1 µM compound. How it is done:
(§3) For direct assessment of cell number, genotype 1a replicon cells were seeded in 384 well plates at 1500 cells/well. Compounds were added as previously described. Cells were fixed in 1% paraformaldehyde (Electron Microscopy Sciences) and 25 µg/ml Hoechst 33342 (Invitrogen) in PBS for 30 minutes at room temperature. The fixed cells were washed twice with PBS, and images of each well were acquired with the ImageXpress Micro (Molecular Devices, Sunnyvale, CA). Nuclei were quantified with the cell scoring application in MetaXpress (Molecular Devices, Sunnyvale, CA).

The test system of data set [5] is HCV replicon cells. The data set can be described thus: Cellular growth by percent confluence (IncuCyte time-lapse microscopy). It is filed as cell-based. As to conditions: for effect on kinetics of cellular proliferation: 1 µM, % confluence every four hours; for minimum inhibitory concentration (MIC) for growth rate: lowest concentration with significant decrease in growth rate. An excerpt:
To distinguish between these two mechanisms, we directly measured cellular confluence (the percent of the culture well occupied by cells, % confluence) every four hours and quantified cellular replication rates.
We next determined if 17-AAG slows cell growth at the same concentration at which it inhibits HCV replication. We quantified growth rate by assessing the change in % confluence between days 1 and 2 (% confluence/day) and measured the effect of growth rate as a function of dose.
(§4) To assess cellular growth, 96 well plates ImageLock plates (Essen Instruments, Ann Arbor, MI) were seeded at a density of 5×10^3 cells/well in culture medium without G418. Percent confluence was quantified using bright phase images (at 10× magnification) acquired of each well every four hours in an IncuCyte (Essen Instuments, Ann Arbor, MI). Alternatively, 7.5×10^4 cells/well were plated in 6 well plates. Each day post drug addition, cells were dislodged from the tissue culture plate using 350 µL trypsin-EDTA and then quenched with 150 µL fetal bovine serum. The number of cells that exclude trypan-blue was determined using the Vi-Cell (Beckman Coulter, Fullerton, CA) in triplicate.

The subject of data set [6] is HCV replicon cells. The data set can be described thus: Trypan-blue exclusion viable cell count. The note with it: 1 µM, multiple timepoints post drug addition. It is filed as cell-based. How it is done:
Cells treated were trypsinized and quantified at multiple timepoints post drug addition (Fig. 5C).
as §4

Data set [7] has as its system Infectious HCV (2a) Min3 virus in non-dividing Lunet-CD81 cells. The data set is described as follows: Extracellular HCV titer in HCV-infected non-dividing cultures. In kind it is cell-based, hepatitis C virus. The note with it: for reduction of infectious HCV titer: 10×EC50 (0.35 µM). How it is done: (§5) Because 17-AAG slows cellular proliferation at concentrations similar to its effective concentration for inhibiting HCV replication, we next assessed whether it inhibited HCV replication in non-dividing cells. We first established a non-dividing monolayer of Lunet-CD81 cells and then infected that monolayer with cell-culture adapted virus capable of spreading and infecting all of the cells in a culture. […] When the fully-infected non-dividing cultures were treated with DMSO alone, the extracellular viral titer remained relatively constant at between 10^5 and 10^6 TCID50/ml over time (Fig. 6A). […] The reduction in HCV titer caused by 17-AAG, may at least in part, result from the modest toxicity observed in the non-dividing monolayers at the concentrations used.
HCV-infected non-dividing cultures were established by methods adapted from Sainz and Chisari. Briefly, Lunet-CD81 cells were seeded in 12-well plates at a density of 50,000 cells/well. The plates were incubated over-night at 37°C and subsequently DMSO was added to 1% final concentration. Cells were allowed to grow to confluence over three days. Infectious HCV (2a) with three adaptive mutations (the Min3 virus) (core K78E, NS2 W879R, and NS4B K1761N) was then added to each well at an MOI of five. […] 200 µl aliquots of the extracellular medium were saved daily, stored at −80°C, and subsequently used for infectious viral titering. After three days, the compound-medium was refreshed and time points were collected for seven days. Viral titers as a percentage of the DMSO-treated control were measured through diluting the extracellular medium 40-fold and using it to infect naïve Lunet-CD81 cells. After 72 hours of incubation, intracellular HCV replication was measured by following NS3-4A protease cleavage of a europium-labeled peptide.

For data set [8], the system named is adapted HCV (2a) in dividing cells. The data set can be described thus: Extracellular HCV titer in fully-infected dividing cultures. It is filed as cell-based, hepatitis C virus. How it is done: As a comparative control, we performed the same compound-treatment using fully-infected cultures that were still dividing (see Materials and Methods). […] The inhibitory effect of 17-AAG was diminished only as the cell cultures reached confluence (days 3 and 4 post-compound addition) (Fig. 6B).
As a comparative control, fully-infected, growing cell cultures were prepared as well. Briefly, cells were plated at 25,000 cells/well on 12-well plates. After the cells adhered to the plate (four hours post-seeding), they were infected at an MOI of five using adapted HCV (2a) (see above). The HCV infection was permitted to spread until the cultures were fully infected (three days post-infection). Subsequently, compounds were added and extracellular medium was removed each day and analyzed as described above.

The next data set concerns HCVcc Min3 virus. The data set can be described thus: Antiviral potency in rapidly-dividing virus-infected cells (NS3-4A protease activity). In kind it is cell-based, hepatitis C virus. How it is done:
To assess the antiviral potency of compounds in rapidly-dividing virus-infected cells. we adapted a method from a previously described assay. Briefly, 1500 cells per well were plated in 384 well-plates. Infection with the HCVcc Min3 virus (core K78E, NS2 W879R, and NS4B K1761N) was followed by addition of compound as described. After three days, intracellular NS3-4A protease activity was assessed. Luciferase, Calcein, CellTiter-Glo, and NS3-4A levels were expressed as a percent of the no-drug control.
Supplementary file pone.0030286.s001.tif: Figure S1 CsA and 17-AAG maintain potency, similar to rapidly-dividing replicon cells, in rapidly-dividing virus-infected cells. The normalized amount of virus, as measured by enzymatic activity of the NS3-4A protease, was determined as a function of dose. […] (TIF) Click here for additional data file.

The subject of data set [9] is non-dividing Lunet-CD81 monolayers. The data set can be described thus: Cell number in non-dividing monolayers. How it is done:
as §5

Data set [10] can be described thus: Calcein AM intracellular esterase activity (cell viability). The method, then:
as §1, §2

A short description of data set [11]: CellTiter-Glo intracellular ATP (cell viability). The method, then:
as §2

Data set [12] can be described thus: Cell number by count of Hoechst-stained nuclei. In kind it is cell-based. As to conditions: genotype 1a HCV replicon cells; Hoechst-stained nuclei, three days. How it is done: as §3

Consider six compounds from paper PMC3275588, “Cellular Growth Kinetics Distinguish a Cyclophilin Inhibitor from an HSP90 Inhibitor as a Selective Inhibitor of Hepatitis C Virus” (PLoS ONE, 2012).

Where “and” joins values, the source holds several entries; their conditions need not be identical. Identical values can stand only once. Like-named read-outs stand apart in the source and are kept apart here.

On to `C=CCNC1=C2C[C@@H](C)C[C@H](OC)[C@H](O)[C@@H](C)/C=C(\C)[C@H](OC(N)=O)[C@@H](OC)/C=C\C=C(/C)C(=O)NC(=CC1=O)C2=O` [17-AAG, 17-(Allylamino)-17-demethoxygeldanamycin], for which the concentration for a half-maximal effect (EC50) (commonly the midpoint of the concentration-response curve) was 12.1 nM and 12 nM in data set [1]; 35 nM in the data set with HCVcc Min3 virus (rapidly-dividing virus-infected cells, NS3-4A protease activity, three days, read-out: EC50). For the same compound, the CC50 (usually the concentration giving 50% cytotoxicity) with HCV replicon cells [2] (read-out: CC50 Calcein, intracellular esterase activity, three day assay) was 21000 nM; with HCV replicon cells [3] (read-out: CC50 Intracellular ATP, CellTiter-Glo), 38 nM; in data set [4] (Hoechst-stained nuclei), 5 nM. In [4], the “number of cells per image” value is given as ~22 % of the controls. Further, in the data set with HCV replicon cells [5] (22 nM, change in % confluence between days 1 and 2), the growth rate is recorded as 18.0+/−1.1 % confluence/day. Further, the “effect on kinetics of cellular proliferation” value in the data set with HCV replicon cells [5] is listed as “slowed the kinetics of cellular proliferation significantly”. Also, the “minimum inhibitory concentration (MIC) for growth rate” value in the data set with HCV replicon cells [5] amounted to 0.022 µM. For the same compound, in the data set with HCV replicon cells [6], the “effect on number of viable cells” value was “reduced the number of viable cells equally effectively”. The “antiviral effect on HCV titer” value in [7] (non-dividing cell-culture model of HCV replication) is on record as “little antiviral effect”. Also, the “reduction of infectious HCV titer” value in data set [7] (non-dividing cells, Day 7) is recorded as 0.3 log; in [7] (non-dividing cells, day 2), 0.6 log. In addition, the “reduction of level of infectious HCV” value in [8] (dividing cells, 10×EC50, after 24 hours of treatment) was “roughly 2 logs”. Also, in data set [9] (non-dividing monolayers, 10×EC50), the number of cells is 74 % of the DMSO-treated control.

Turning to `COc1ccc2c(O[C@@H]3C[C@H]4C(=O)N[C@]5(C(=O)O)C[C@H]5/C=C\CCCCC[C@H](NC(=O)OC5CCCC5)C(=O)N4C3)cc(-c3csc(NC(C)C)n3)nc2c1` [BILN-2061], in data set [7] (non-dividing cells, 10×EC50, sustained over 7-day time course), the “suppression of infectious HCV titer” value came out at 2 log. Further, in [8] (dividing and non-dividing cells, 10×EC50), the “effect on viral titers” value is “inhibited viral titers in both dividing and non-dividing cells”. For the same compound, the EC50 in the data set on HCVcc Min3 virus (Hepatitis C virus, 72 h) was determined as 140 nM. The “effect on number of cells” value in [9] (human, 10 ×EC50) was “neither CsA nor BILN 2061-treatment decreased the number of cells”.

For `COc1cc2c(c(OC)c1OC)-c1ccc(OC)c(=O)cc1[C@@H](NC(C)=O)CC2` [Colchicine, colchicine], the cytotoxic concentration (CC50) at 3 days in [10] was > 44400 nM; in data set [11] it was 16 nM. Also, the “intracellular ATP signal” value with HCV replicon cells [3] (maximal effect) was < 7 % of the untreated controls.

In data set [1] (Hepatitis C virus, 72 h), `Nc1ccn([C@@H]2O[C@H](CO)[C@@H](O)C2(F)F)c(=O)n1` [Gemcitabine, gemcitabine] registered a concentration giving a half-maximal response (EC50) of 12 nM. Further, the cytotoxic concentration (CC50) at 3 days is > 44400 nM in data set [10], 6 nM in [11] and 4 nM in data set [12]. For the same compound, in [4], the “number of cells per image” value is given as ~22 % of the controls.

On to `CNC(=O)c1c(-c2ccc(F)cc2)oc2cc(N(CCO)S(C)(=O)=O)c(C3CC3)cc12` [HCV-796], for which a half-maximal response in data set [1] (Hepatitis C virus, 72 h) (EC50) required 15 nM. The CC50 at 3 days in data set [10], in data set [11] and in data set [12] was > 44400 nM each time. The “cytotoxicity (intracellular esterase activity)” value in the data set with HCV replicon cells [2] (2 nM to 44.4 µM, three days) is “without any observable cytotoxicity”. The “effect on number of cells per image” value in [4] was “Neither 1 µM CsA (Fig. 4C) nor HCV-796 (Fig. 4A) altered the number of cells per image”. The “toxicity by cell number” value in [4] (dose response) is “non-toxic at all concentrations tested”. For the same compound, the “effect on cell proliferation (growth rate as a function of dose)” value in the data set with HCV replicon cells [5] (any concentration tested) is “did not significantly impair cell proliferation at any concentration tested”. Further, the “effect on number of viable cells” value in the data set on HCV replicon cells [6] is given as “Neither CsA nor HCV-796 treatment affected cell viability”.

`COc1ccc(C[C@H](N)C(=O)N[C@H]2[C@@H](O)[C@H](n3cnc4c(N(C)C)ncnc43)O[C@@H]2CO)cc1` [Puromycin, puromycin] registered a 50% effective concentration (EC50) in [1] (Hepatitis C virus, 72 h) of 290 nM. In addition, the CC50 at 3 days is 1070 nM in data set [10], 516 nM in data set [11] and 52 nM in [12]. Besides, in the data set on HCV replicon cells [2] (Calcein assay vs replicon assay), the “difference between CC50 (toxic concentration) and EC50 (antiviral concentration)” value is recorded as ≤ 4 fold. Moreover, the “effect on number of cells per image” value in data set [4] is recorded as “eliminated all cells”. Further, in the data set with HCV replicon cells [5], the “effect on kinetics of cellular proliferation” value is “rapid elimination of cells”. Also, the “minimum inhibitory concentration (MIC) for growth rate” value in the data set with HCV replicon cells [5] was 0.205 µM. The “effect on number of viable cells” value in the data set on HCV replicon cells [6] is on record as “reduced the number of viable cells equally effectively”.
